The results in this text go back to patent US4581451A, “Preparation of di- and tri-substituted xanthine compounds” (priority 1980, dated 1986).

A short description of data set [1]: climbing behaviour induced by apomorphine in mice. In kind it is in vivo. Particulars: p.o. An excerpt:
(§1) The compounds of Examples 1, 4, 11 and 12 were subjected to behavioural tests in accordance with "predictability and specificity of behaviour screening tests for neuroleptics", P. Worms and K. G. Lloyd, […], Vol. 5, pages 445-450, 1979, comprising: […]

A short description of data set [2]: behavioural study in rats: anxiety induced by a new environment (rearings and movements). In kind it is in vivo, male Sprague-Dawley rats. Particulars: Rattus norvegicus, 0.5 h; oral, sodium salt in solution, 30 min before test, 15 min count; S.N.: mean of two regression curves; S.A.: from rearings curve; read-out: ED 50. An excerpt:
The xanthines obtained in accordance with the preceding Examples were the subject of a behavioural study in rats as a function of the anxiety induced by a new environment. In rats, anxiety is manifested by rearing the animal on its two hind paws, whilst locomotive activity is expressed by their movements.
A state of anxiety is induced by confronting "naive" male Sprague-Dawley (Iffa-Credo, France) rats weighing from 260 to 300 g with a new environment in the form of cages of Macrolon (30×25 cm) which are situated in a sound-proofed air-conditioned room (22° C./50% relative humidity).
The number of rearings and movements is automatically determined by means of infrared photoelectric cells which only emit electrical pulses for the active movements of the animal and not for its static movements, such as those of its head and tail, for reasons of reproducibility. These photoelectric cells scan the cages at two different levels so as to distinguish the standing-up movements from the other movements. The number of rearings and movements is counted by the two rows of photoelectric cells, memorised and read out using a printer in accordance with a pre-established program.
The tested compound in solution in the form of its sodium salt is orally administered by oesophagus probe (the reference administration being formed by 6 ml/kg of distilled water) 30 minutes before the animals are placed in the cages. The number of rearings and movements is determined during the 15 minutes after they have been put into the cages in relation to the effect generated by the reference administration.
The ED 50 dose (expressed in mg/kg), i.e. the quantity of substance required to bring about a 50% variation in the motive activity in relation to the reference administration, is determined from the development of the effects of the tested substances on the number of movements and rearings as a function of the progressive doses administered expressed as a percentage of the movements and rearings counted for the reference administration.
The gradients of the regression curves corresponding to the movements and to the rearings are compared by recording the value of the gradient of the movement curve on the abscissa (d) and the value of the gradient of the rearing curve on the ordinant (r) of a system of rectungular axes.
The ratio of the gradient of the movements to that of the rearings is also determined, enabling the specificity of effect of a given substance on the anxiety state to be assessed.
The effect of a substance is determined by its position relative to the curve d=r of gradient=1. The substances situated on this curve have a similar effect on the rearings and movements, being sedatives with a non-specific effect (S.N.). For these compounds, the ED 50 value quoted corresponds to the mean taken from the two regression curves.
These compounds are sedatives of anxiolytic character (S.A.). In this case, the ED 50 value is calculated from the regression curve of the rearings.

Data set [3] can be described thus: base screening: diuretic in male rats. The format is in vivo. The following applies: Rattus norvegicus, read-out: minimal effective dose producing a significant response, diuretic (c). An excerpt: (c) diuretic in male rats, as determined in accordance with W. L. Lipschitz, Z Hadidian and A. Kerpcsar, JPET, Vol. 79, pages 97-110, 1943
The nature of data set [4]: stereotype behaviour induced by apomorphine in rats. The format is in vivo. The following applies: p.o.
From the text: as §1

The nature of data set [5]: base screening: bronchodilatory in vitro. An excerpt:
(e) bronchodilatory in vitro as determined in accordance with F. P. Luduena et al., Arch. int. Pharmacodyn, Vol. 111, pages 392-400, 1957

Data set [6] can be described thus: in vivo. Particulars: mouse, po, solution in DMSO.
Data set [7] can be described thus: base screening: anti-histamine in vitro. An excerpt:
(f) anti-histamine in vitro as determined in accordance with R. Magnus, Arch f.d., ges. physiol., Vol. 102, pages 123-151, 1904.

A short description of data set [8]: catalepsy induced by haloperidol in rats. In kind it is in vivo. Particulars: p.o.
From the text: as §1

Data set [9] is described as follows: base screening: anti-allergic in male and female rats. In kind it is in vivo. An excerpt: (d) anti-allergic in male and female rats, as determined in accordance with J. Goose and A. M. J. N. Blair, Immunol., Vol. 16, pages 749-760, 1969
A short description of data set [10]: hypomotility induced by amphetamine in rats. In kind it is in vivo. The following applies: p.o.
From the text: as §1

Data set [11] is described as follows: analgesia induced by pentobarbital in mice. The format is in vivo. The following applies: p.o.
From the text: as §1

Data set [12] can be described thus: rectal temperature in mice. In kind it is in vivo. Particulars: p.o.
From the text: as §1

Data set [13] can be described thus: in vivo. Particulars: rat, po, solution in DMSO. An excerpt:
(b) Determination of the acute toxicity LD 50 in male and female rats in solution is DMSO (reference DMSO alone) in accordance with C.

The structures appear in SMILES notation. Read-outs that look alike come from different tables or passages of the source.

One may read the minimal effective dose as the lowest level tested that produced the effect sought.

Take `CCCCn1c(=O)n(CCC)c(=O)c2[nH]c(C)nc21` [Example 11, 1-propyl-3-butyl-8-methyl xanthine]: the “climbing behaviour induced by apomorphine” value in data set [1] is listed as “inhibition at 1 mg/kg p.o”. Further, the ED50 in data set [2] was 0.35 mg/kg. For the same compound, in data set [3], the minimal effective dose came out at 0.25 mg/kg. Moreover, in [4], the “stereotype behaviour induced by apomorphine” value is “no antagonism up to 8 mg/kg p.o”. Further, the “minimal effective concentration producing a significant response, bronchodilatory (e)” value in [5] amounted to 10 µg/mL. Moreover, the LD50 in the data set “in vivo [6]” (female, read-out: LD 50, mice female) amounted to 151 mg/kg; in the data set “in vivo [6]” (male, read-out: LD 50, mice male), 91 mg/kg; in “in vivo [13]” (female, read-out: LD 50, rats female), 15 mg/kg; in “in vivo [13]” (male, read-out: LD 50, rats male), 25 mg/kg. Further, the “minimal effective concentration producing a significant response, anti-histamine (f)” value in data set [7] amounted to 50 µg/mL. In addition, the “catalepsy induced by haloperidol” value in [8] is listed as “potentialisation at 1 mg/kg p.o”. For the same compound, in data set [9], the “minimal effective dose producing a significant response, anti-allergic (d)” value is on record as “no effect”. Also, the “hypomotility induced by amphetamine” value in [10] is “antagonism at 0.5 mg/kg p.o”. For the same compound, the “analgesia induced by pentobarbital” value in data set [11] is on record as “potentialisation at 0.5 mg/kg p.o”. Besides, in [12], the rectal temperature entry is “hypothermal effect at 2 mg/kg p.o”.
